# Like-named read-outs stand apart in the source and are kept apart here.
# Biological target: ALPK1 (Homo sapiens (Human), UniProt Q96QP1)
# Assay: ALPK1 in vitro kinase assay (HTRF of TIFA phosphorylation)
# Type: biochemical
# [1] = ALPK1 2 nM, TIFA substrate, ADP-Heptose activator, HTRF readout
# ALPK1, sequence (Q96QP1 whole entry): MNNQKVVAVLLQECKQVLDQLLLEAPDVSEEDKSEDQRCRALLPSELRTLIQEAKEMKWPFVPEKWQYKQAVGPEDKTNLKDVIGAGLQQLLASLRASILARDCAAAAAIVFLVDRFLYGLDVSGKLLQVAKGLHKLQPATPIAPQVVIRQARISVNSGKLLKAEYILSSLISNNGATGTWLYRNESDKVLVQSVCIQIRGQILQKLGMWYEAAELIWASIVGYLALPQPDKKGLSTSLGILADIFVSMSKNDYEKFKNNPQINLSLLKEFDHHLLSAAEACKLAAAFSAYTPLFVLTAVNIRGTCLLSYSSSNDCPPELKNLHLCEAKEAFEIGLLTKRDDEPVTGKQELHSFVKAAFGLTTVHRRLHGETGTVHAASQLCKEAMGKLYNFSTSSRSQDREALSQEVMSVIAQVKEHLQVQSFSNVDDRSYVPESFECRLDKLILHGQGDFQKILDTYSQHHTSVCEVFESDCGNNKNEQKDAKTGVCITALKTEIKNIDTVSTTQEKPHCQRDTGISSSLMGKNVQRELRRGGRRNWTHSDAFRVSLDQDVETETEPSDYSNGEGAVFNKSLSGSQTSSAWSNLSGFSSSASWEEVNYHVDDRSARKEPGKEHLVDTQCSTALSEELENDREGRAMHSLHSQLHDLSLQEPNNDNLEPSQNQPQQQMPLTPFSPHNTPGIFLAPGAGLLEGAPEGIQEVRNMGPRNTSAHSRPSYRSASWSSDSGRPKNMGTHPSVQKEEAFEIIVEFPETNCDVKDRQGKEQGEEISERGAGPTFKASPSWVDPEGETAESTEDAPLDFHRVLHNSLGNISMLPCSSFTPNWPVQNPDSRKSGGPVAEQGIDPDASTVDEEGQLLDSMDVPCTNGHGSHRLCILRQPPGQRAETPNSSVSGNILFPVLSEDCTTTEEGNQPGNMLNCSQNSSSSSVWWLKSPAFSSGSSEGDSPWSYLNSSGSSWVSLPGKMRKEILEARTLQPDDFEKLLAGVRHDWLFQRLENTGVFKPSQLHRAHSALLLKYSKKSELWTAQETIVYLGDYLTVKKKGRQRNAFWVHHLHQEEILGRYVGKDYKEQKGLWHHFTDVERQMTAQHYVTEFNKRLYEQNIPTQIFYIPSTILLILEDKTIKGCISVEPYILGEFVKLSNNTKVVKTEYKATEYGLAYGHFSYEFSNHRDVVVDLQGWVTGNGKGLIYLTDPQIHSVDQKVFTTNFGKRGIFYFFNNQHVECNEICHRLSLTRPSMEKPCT
compound,measurement,setting,value
"C#CC(C)(c1ccc(OC(F)F)cc1)c1csc(NC(=O)c2c(F)cc(N3CCNCC3)cc2F)n1 (stereo not shown) [Example C033, N-(4-(2-(4-(difluoromethoxy)phenyl)but-3-yn-2-yl)thiazol-2-yl)-2,6-difluoro-4-(piperazin-1-yl)benzamide]",IC50,[1],73 nM
"Cc1ccc(C(C)(C)c2csc(NC(=O)c3ccc(N4CCNCC4)nc3)n2)cc1 [Example B045, 6-(piperazin-1-yl)-N-(4-(2-(p-tolyl)propan-2-yl)thiazol-2-yl)nicotinamide]",IC50,[1],30 nM
"[2H]C([2H])(O)CNC(=O)Nc1nc([C@](C)(C#C)c2ccc(Cl)cc2)cs1 (single isomer, unassigned) [Example A320, 1-[4-[1-(4-chlorophenyl)-1-methyl-prop-2-ynyl]thiazol-2-yl]-3-(2,2-dideuterio-2-hydroxy-ethyl)urea]",IC50,,44 nM
"COc1ccc(C(C)(C)c2csc(NC(=O)c3ccc(NCCN(C)C)nc3)n2)cc1 [Example B056, 6-((2-(dimethylamino)ethyl)amino)-N-(4-(2-(4-methoxyphenyl)propan-2-yl)thiazol-2-yl)nicotinamide]",IC50,[1],120 nM
"C#CC(C)(c1ccc(F)cc1)c1csc(NC(=O)c2c(F)cc(-c3cnc(CN)cn3)cc2F)n1 (stereo not shown) [Example B104, 4-(5-(aminomethyl)pyrazin-2-yl)-2,6-difluoro-N-(4-(2-(4-fluorophenyl)but-3-yn-2-yl)thiazol-2-yl)benzamide]",IC50,[1],1470 nM
"C#C[C@@](C)(c1ccc(F)cc1)c1csc(NC(=O)c2c(F)cc(N3CCC(N)C3)cc2F)n1 (stereo in doubt) [Example B090, 4-(3-aminopyrrolidin-1-yl)-2,6-difluoro-N-(4-(2-(4-fluorophenyl)but-3-yn-2-yl)thiazol-2-yl)benzamide]",IC50,[1],107 nM
"CC(C)(c1ccc(Br)cc1)c1csc(NC(=O)NCc2ccc(N3CCC(C(N)=O)CC3)cc2)n1 [Example A006, 1-(4-((3-(4-(2-(4-bromophenyl)propan-2-yl)thiazol-2-yl)ureido)methyl)phenyl) piperidine-4-carboxamide]",IC50,,104 nM
"C#CC(C)(c1ccc(Cl)cc1)c1csc(NC(=O)c2c(Cl)cc(N3CCNCC3)cc2Cl)n1 (stereo not shown) [Example B096, 2,6-dichloro-N-(4-(2-(4-chlorophenyl)but-3-yn-2-yl)thiazol-2-yl)-4-(piperazin-1-yl)benzamide]",IC50,[1],312 nM
"C#C[C@@](C)(c1ccc(Cl)cc1)c1csc(NC(=O)c2ccc(N3CCNC(CO)C3)cc2)n1 (stereo in doubt) [Example B077, N-(4-(2-(4-chlorophenyl)but-3-yn-2-yl)thiazol-2-yl)-4-(3-(hydroxymethyl)piperazin-1-yl)benzamide]",IC50,[1],90 nM
"C#C[C@](C)(c1ccc(F)cc1)c1csc(NC(=O)c2ccc(N3CCNCC3CO)cc2)n1 (stereo in doubt) [Example B072, N-[4-[1-(4-fluorophenyl)-1-methyl-prop-2-ynyl]thiazol-2-yl]-4-[2-(hydroxymethyl)piperazin-1-yl]benzamide]",IC50,[1],260 nM
"C#C[C@@](C)(c1ccc(Cl)cc1)c1csc(NC(=O)c2c(F)cc(N3CCN(CCO)CC3)cc2F)n1 [Example C023, (S)-N-(4-(2-(4-chlorophenyl)but-3-yn-2-yl)thiazol-2-yl)-2,6-difluoro-4-(4-(2-hydroxyethyl)piperazin-1-yl)benzamide]",IC50,[1],60 nM
"C#CC(C)(c1ccc(Cl)cc1)c1csc(NC(=O)c2ccc(N3CCNCC3)cc2F)n1 (stereo not shown) [Example B094, N-(4-(2-(4-chlorophenyl)but-3-yn-2-yl)thiazol-2-yl)-2-fluoro-4-(piperazin-1-yl)benzamide]",IC50,[1],151 nM
"CC(C)(c1ccc(Br)cc1)c1csc(NC(=O)c2ccc3[nH]ccc3c2)n1 [Example B002, N-(4-(2-(4-bromophenyl)propan-2-yl)thiazol-2-yl)-1H-indole-5-carboxamide]",IC50,[1],206 nM
"COc1ccc(C(C)(C)c2csc(NC(=O)c3ccc(N4CCNCC4)c(OC)c3)n2)cc1 [Example B039, 3-methoxy-N-(4-(2-(4-methoxyphenyl)propan-2-yl)thiazol-2-yl)-4-(piperazin-1-yl)benzamide]",IC50,[1],123 nM
"CC(c1ccc(C(=O)Nc2nc(C(C)(C)c3ccc(Br)cc3)cs2)cc1)N1CCNCC1 (stereo not shown) [Example B019, N-(4-(2-(4-bromophenyl)propan-2-yl)thiazol-2-yl)-4-(1-(piperazin-1-yl)ethyl)benzamide]",IC50,[1],98 nM
"O=C(Nc1nc(C2(c3ccc(Br)cc3)CCCC2)cs1)c1c(F)cc(N2CCNCC2)cc1F [Example C006, N-(4-(1-(4-bromophenyl)cyclopentyl)thiazol-2-yl)-2,6-difluoro-4-(piperazin-1-yl)benzamide]",IC50,[1],43 nM
"C#CC(C)(c1ccc(Br)cc1)c1csc(NC(=O)[C@H]2C[C@H](CO)C2)n1 (mixture of isomers) [Example D005, rac-(1r,3r)-N-(4-(2-(4-bromophenyl)but-3-yn-2-yl)thiazol-2-yl)-3-(hydroxymethyl)cyclobutanecarboxamide]",IC50,[1],98 nM
"C#CC(C)(c1ccc(Cl)cc1)c1csc(NC(=O)N(CCO)CCO)n1 (stereo not shown) [Example A267, 3-(4-(2-(4-chlorophenyl)but-3-yn-2-yl)thiazol-2-yl)-1,1-bis(2-hydroxyethyl)urea]",IC50,,171 nM
"COc1ccc(C(C)(C)c2csc(NC(=O)c3ccc(NCCO)cc3)n2)cc1 [Example B060, 4-((2-hydroxyethyl)amino)-N-(4-(2-(4-methoxyphenyl)propan-2-yl)thiazol-2-yl)benzamide]",IC50,[1],280 nM
"C#CC(C)(c1ccc(F)cc1)c1csc(NC(=O)c2c(F)cc(-c3cnn(C)c3N)cc2F)n1 (stereo not shown) [Example B102, 4-(5-amino-1-methyl-1H-pyrazol-4-yl)-2,6-difluoro-N-(4-(2-(4-fluorophenyl)but-3-yn-2-yl)thiazol-2-yl)benzamide]",IC50,[1],1270 nM
"COCC(C)(c1ccc(Br)cc1)c1csc(NC(=O)c2c(F)cc(N3CCNCC3)cc2F)n1 (stereo not shown) [Example C027, N-(4-(2-(4-bromophenyl)-1-methoxypropan-2-yl)thiazol-2-yl)-2,6-difluoro-4-(piperazin-1-yl)benzamide]",IC50,[1],100 nM
"COc1ccc(C(C)(C)c2csc(NC(=O)c3ccc(NCCN)cc3)n2)cc1 [Example B033, 4-((2-aminoethyl)amino)-N-(4-(2-(4-methoxyphenyl)propan-2-yl)thiazol-2-yl)benzamide]",IC50,[1],247 nM
"C#CC(C)(c1ccc(Cl)cc1)c1csc(NC(=O)c2ccc(N3CCNCC3)nc2)n1 (stereo not shown) [Example B061, N-(4-(2-(4-chlorophenyl)but-3-yn-2-yl)thiazol-2-yl)-6-(piperazin-1-yl)nicotinamide]",IC50,[1],167 nM
"CN(C)CCNc1ccc(C(=O)Nc2nc(C(C)(C)c3ccc(Br)cc3)cs2)cn1 [Example B055, N-(4-(2-(4-bromophenyl)propan-2-yl)thiazol-2-yl)-6-((2-(dimethylamino)ethyl)amino)nicotinamide]",IC50,[1],125 nM
C#C[C@](C)(c1ccc(Cl)cc1)c1csc(NC(=O)c2c(F)cc(N3CCC(N)C3)cc2F)n1 (stereo partly shown) [Example B086],IC50,[1],286 nM
"COc1ccc(C(C)(C)c2csc(NC(=O)c3ccc(CN4CCN(CCO)CC4)nc3)n2)cc1 [Example B052, 6-((4-(2-hydroxyethyl)piperazin-1-yl)methyl)-N-(4-(2-(4-methoxyphenyl)propan-2-yl)thiazol-2-yl)nicotinamide]",IC50,[1],111 nM
"COc1ccc(C(C)(C)c2csc(NC(=O)c3ccc(N4CCC(N)C4)cc3)n2)cc1 (stereo not shown) [Example B041, 4-(3-aminopyrrolidin-1-yl)-N-(4-(2-(4-methoxyphenyl)propan-2-yl)thiazol-2-yl)benzamide]",IC50,[1],80 nM
"COCC(C)(c1ccc(Cl)cc1)c1csc(NC(=O)c2c(F)cc(N3CCNCC3)cc2F)n1 (stereo not shown) [Example C029, N-(4-(2-(4-chlorophenyl)-1-methoxypropan-2-yl)thiazol-2-yl)-2,6-difluoro-4-(piperazin-1-yl)benzamide]",IC50,[1],128 nM
"C#CC(C)(c1ccc(OC)cc1)c1csc(NC(C)=O)n1 (stereo not shown) [Example D002, N-(4-(2-(4-methoxyphenyl)but-3-yn-2-yl)thiazol-2-yl)acetamide]",IC50,[1],196 nM
"COc1ccc(C(C)(C)c2csc(NC(=O)c3ccc(N4CCNCC4)cc3)n2)cc1 [Example B001, N-(4-(2-(4-methoxyphenyl)propan-2-yl)thiazol-2-yl)-4-(piperazin-1-yl)benzamide]",IC50,[1],123 nM
"Cc1ccc(C(C)(C)c2csc(NC(=O)c3ccc(CN4CCN(CCO)CC4)nc3)n2)cc1 [Example B059, 6-((4-(2-hydroxyethyl)piperazin-1-yl)methyl)-N-(4-(2-(p-tolyl)propan-2-yl)thiazol-2-yl)nicotinamide]",IC50,[1],159 nM
"COc1ccc(C(C)(C)c2csc(NC(=O)NCc3cccc(N4CCNCC4)n3)n2)cc1 [Example A043, 1-(4-(2-(4-methoxyphenyl)propan-2-yl)thiazol-2-yl)-3-((6-(piperazin-1-yl)pyridin-2-yl)methyl)urea]",IC50,,165 nM
"CC(=O)Nc1nc(C(C)(C)c2ccc(Br)cc2)cs1 [Example D001, N-(4-(2-(4-bromophenyl)propan-2-yl)thiazol-2-yl)acetamide]",IC50,[1],100 nM
"CCOc1ccc(C(C)(C)c2csc(NC(=O)NCc3ccc(N4CCNCC4)cc3)n2)cc1 [Example A059, 1-(4-(2-(4-ethoxyphenyl)propan-2-yl)thiazol-2-yl)-3-(4-(piperazin-1-yl)benzyl)urea]",IC50,,269 nM
"C#C[C@](C)(c1ccc(Cl)cc1)c1csc(NC(=O)c2c(F)cc(N3CCC(N)C3)cc2F)n1 (stereo in doubt) [Example B085, 4-(3-aminopyrrolidin-1-yl)-N-(4-(2-(4-chlorophenyl)but-3-yn-2-yl)thiazol-2-yl)-2,6-difluorobenzamide]",IC50,[1],395 nM
"CC(C)(c1ccc(Br)cn1)c1csc(NC(=O)NCc2ccc(N3CCNCC3)c(F)c2)n1 [Example A057, 1-(4-(2-(5-bromopyridin-2-yl)propan-2-yl)thiazol-2-yl)-3-(3-fluoro-4-(piperazin-1-yl)benzyl)urea]",IC50,,246 nM
"CC(C)(c1ccc(Br)cc1)c1csc(NC(=O)c2ccc(C(N)=O)cc2)n1 [Example B003, N-(4-(2-(4-bromophenyl)propan-2-yl)thiazol-2-yl)terephthalamide]",IC50,[1],192 nM

# Reference: patent publication US20240109853A1 (Shanghai Yao Yuan Biotechnology Co., Ltd., priority 2020, published 2024)
